According to patent US10030020B2, “Spirocycle compounds and methods of making and using same” (Abide Therapeutics, Inc., priority 2016, dated 2018):

What was measured:
MAGL [1] = biological target: T1, MAGL (Mus musculus (Mouse), UniProt O35678); assay: In vitro competitive activity-based protein profiling (mouse brain membrane fraction or cell lysates), MAGL band; format: biochemical; details: mouse proteome; for inhibition at 1 µM: read-out: MAGL % Inh 1 μM (mouse); for IC50: competitive ABPP
T1 sequence (O35678 whole entry): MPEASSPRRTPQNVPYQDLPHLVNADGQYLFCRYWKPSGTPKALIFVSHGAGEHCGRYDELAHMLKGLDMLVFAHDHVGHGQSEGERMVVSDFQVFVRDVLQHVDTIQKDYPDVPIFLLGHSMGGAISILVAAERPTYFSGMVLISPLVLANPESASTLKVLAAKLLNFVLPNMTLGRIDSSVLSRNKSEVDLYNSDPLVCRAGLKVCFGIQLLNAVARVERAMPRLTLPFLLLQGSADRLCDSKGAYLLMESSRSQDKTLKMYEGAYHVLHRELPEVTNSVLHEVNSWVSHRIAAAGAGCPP
Procedure: In Vitro Competitive Activity-Based Protein Profiling.
Proteomes (mouse brain membrane fraction or cell lysates) (50 μL, 1.0 mg/mL total protein concentration) were preincubated with varying concentrations of inhibitors at 37° C. After 30 min, FP—Rh (1.0 μL, 50 μM in DMSO) was added and the mixture was incubated for another 30 min at 37° C. Reactions were quenched with SDS loading buffer (50 μL-4×) and run on SDS-PAGE.

ABHD6 [2] = biological target: T2, ABHD6 (Mus musculus (Mouse), UniProt Q8R2Y0); assay: In vitro competitive activity-based protein profiling (mouse brain membrane fraction or cell lysates), ABHD6 band; format: biochemical; details: mouse proteome; for inhibition at 1 µM: read-out: ABHD6 % Inh 1 μM (mouse); for IC50: competitive ABPP
T2 sequence (Q8R2Y0 whole entry): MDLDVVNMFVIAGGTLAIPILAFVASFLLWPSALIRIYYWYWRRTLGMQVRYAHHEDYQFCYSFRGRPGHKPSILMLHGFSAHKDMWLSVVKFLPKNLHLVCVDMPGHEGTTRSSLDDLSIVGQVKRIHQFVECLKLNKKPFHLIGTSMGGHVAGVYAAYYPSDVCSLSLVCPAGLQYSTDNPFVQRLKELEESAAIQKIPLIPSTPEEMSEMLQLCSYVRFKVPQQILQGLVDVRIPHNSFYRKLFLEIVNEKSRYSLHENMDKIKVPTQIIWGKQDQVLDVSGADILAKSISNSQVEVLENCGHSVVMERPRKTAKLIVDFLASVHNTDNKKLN
How it was run: (§1)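 Competitive ABPP: proteome 1.0 mg/mL protein + inhibitor, 30 min, 37° C; FP-Rh probe (stock 50 μM in DMSO) added, 30 min, 37° C; SDS quench, SDS-PAGE, fluorescent band intensity read.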

FAAH [3] = biological target: T3, FAAH (Mus musculus (Mouse), UniProt O08914); assay: In vitro competitive activity-based protein profiling (mouse brain membrane fraction or cell lysates), FAAH band; format: biochemical; details: mouse proteome; for inhibition at 1 µM: read-out: FAAH % Inh 1 μM (mouse); for IC50: competitive ABPP
T3 sequence (O08914 whole entry): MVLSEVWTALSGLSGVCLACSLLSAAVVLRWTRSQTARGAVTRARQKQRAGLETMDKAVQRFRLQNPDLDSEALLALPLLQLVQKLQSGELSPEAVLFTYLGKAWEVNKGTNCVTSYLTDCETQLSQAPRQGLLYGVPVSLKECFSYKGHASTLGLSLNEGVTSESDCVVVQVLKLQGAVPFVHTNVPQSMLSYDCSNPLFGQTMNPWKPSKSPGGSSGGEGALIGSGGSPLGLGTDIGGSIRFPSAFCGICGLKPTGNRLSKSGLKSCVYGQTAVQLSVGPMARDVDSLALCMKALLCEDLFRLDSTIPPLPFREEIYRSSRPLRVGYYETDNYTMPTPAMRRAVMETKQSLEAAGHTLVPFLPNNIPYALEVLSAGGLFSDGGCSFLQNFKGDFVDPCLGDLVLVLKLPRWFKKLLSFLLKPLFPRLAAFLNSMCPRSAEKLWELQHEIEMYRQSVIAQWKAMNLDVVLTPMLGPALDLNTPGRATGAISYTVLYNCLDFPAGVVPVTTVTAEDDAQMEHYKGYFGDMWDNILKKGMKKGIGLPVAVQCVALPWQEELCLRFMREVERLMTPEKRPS
How it was run: as §1

MAGL [4] = biological target: T1, MAGL; assay: Mouse brain proteomes from inhibitor treated mice (oral gavage, sacrificed 4 h after administration, ABPP analysis); format: in vivo, mouse (C57Bl/6J); details: 5 mg/kg oral gavage
How it was run: (§2)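 Read-out is % inhibition at 5 mg/kg in brain proteomes profiled by activity-based protein profiling. Inhibitors were dosed orally to wild-type C57Bl/6J mice, with sacrifice at 4 h.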

FAAH [5] = biological target: T3, FAAH; assay: Mouse brain proteomes from inhibitor treated mice (oral gavage, sacrificed 4 h after administration, ABPP analysis), FAAH; format: in vivo, mouse (C57Bl/6J); details: 5 mg/kg oral gavage
How it was run: as §2

ABHD6 [6] = biological target: T2, ABHD6; assay: Mouse brain proteomes from inhibitor treated mice (oral gavage, sacrificed 4 h after administration, ABPP analysis), ABHD6; format: in vivo, mouse (C57Bl/6J); details: 5 mg/kg oral gavage
How it was run: as §2

`O=C(COc1cc(CN2CCCC23CCN(C(=O)OC(C(F)(F)F)C(F)(F)F)CC3)cc(C(F)(F)F)c1)N1CCCC1` [Example 168, 1,1,1,3,3,3-Hexafluoropropan-2-yl 1-(3-(2-oxo-2-(pyrrolidin-1-yl)ethoxy)-5-(trifluoromethyl)benzyl)-1,8-diazaspiro[4.5]decane-8-carboxylate] showed an inhibition at 1 µM (MAGL [1]) greater than 75%, an IC50 (MAGL [1]) of less than 0.1 µM and an inhibition at 1 µM (ABHD6 [2]) of less than 25%. It also gave an IC50 (ABHD6 [2]) greater than 1 µM, an inhibition at 1 µM (FAAH [3]) of less than 25% and an IC50 (FAAH [3]) greater than 1 µM. The “MAGL % Inh 5 mg/kg (mouse)” value (MAGL [4]) was “## (## is equal to or greater than 25% but less than 75%)”, the “FAAH % Inh 5 mg/kg (mouse)” value (FAAH [5]) was “# (# is <25%)” and the “ABHD6 % Inh 5 mg/kg (mouse)” value (ABHD6 [6]) was “# (# is <25%)”.

`O=C(OC(C(F)(F)F)C(F)(F)F)N1CCC2(CCCN2Cc2cc(OC3CCOCC3)cc(C(F)(F)F)c2)CC1` [Example 170, 1,1,1,3,3,3-Hexafluoropropan-2-yl 1-(3-(tetrahydro-2H-pyran-4-yloxy)-5-(trifluoromethyl)benzyl)-1,8-diazaspiro[4.5]decane-8-carboxylate] was tested, and the inhibition at 1 µM (MAGL [1]) was greater than 75%, the IC50 (MAGL [1]) was less than 0.1 µM and the inhibition at 1 µM (ABHD6 [2]) was less than 25%. For the same compound, the IC50 (ABHD6 [2]) was greater than 1 µM, the inhibition at 1 µM (FAAH [3]) was less than 25% and the IC50 (FAAH [3]) was greater than 1 µM. For the same compound, the “MAGL % Inh 5 mg/kg (mouse)” value (MAGL [4]) was “## (## is equal to or greater than 25% but less than 75%)”, the “FAAH % Inh 5 mg/kg (mouse)” value (FAAH [5]) was “# (# is <25%)” and the “ABHD6 % Inh 5 mg/kg (mouse)” value (ABHD6 [6]) was “# (# is <25%)”.

`O=C(OC(C(F)(F)F)C(F)(F)F)N1CCC2(CCCN2Cc2cc(Oc3nc4ccccc4s3)cc(C(F)(F)F)c2)CC1` [Example 172, 1,1,1,3,3,3-Hexafluoropropan-2-yl 1-(3-(benzo[d]thiazol-2-yloxy)-5-(trifluoromethyl)benzyl)-1,8-diazaspiro[4.5]decane-8-carboxylate] was tested, and the inhibition at 1 µM (MAGL [1]) was greater than 75%, the IC50 (MAGL [1]) was less than 0.1 µM and the inhibition at 1 µM (ABHD6 [2]) was less than 25%. For the same compound, the IC50 (ABHD6 [2]) was greater than 1 µM, the inhibition at 1 µM (FAAH [3]) was less than 25% and the IC50 (FAAH [3]) was greater than 1 µM. The “MAGL % Inh 5 mg/kg (mouse)” value (MAGL [4]) was “# (# is <25%)”, the “FAAH % Inh 5 mg/kg (mouse)” value (FAAH [5]) was “# (# is <25%)” and the “ABHD6 % Inh 5 mg/kg (mouse)” value (ABHD6 [6]) was “# (# is <25%)”.

In the case of `O=C(OC(C(F)(F)F)C(F)(F)F)N1CCC2(CCCN2Cc2ccc(C(F)(F)F)cc2Oc2cccnc2)CC1` [Example 173, 1,1,1,3,3,3-Hexafluoropropan-2-yl 1-(2-(pyridin-3-yloxy)-4-(trifluoromethyl)benzyl)-1,8-diazaspiro[4.5]decane-8-carboxylate], the inhibition at 1 µM (MAGL [1]) is reported as greater than 75%, the IC50 (MAGL [1]) is reported as less than 0.1 µM and the inhibition at 1 µM (ABHD6 [2]) is reported as 25 to 75%. It also gave an IC50 (ABHD6 [2]) greater than 1 µM, an inhibition at 1 µM (FAAH [3]) of less than 25% and an IC50 (FAAH [3]) greater than 1 µM. For the same compound, the “MAGL % Inh 5 mg/kg (mouse)” value (MAGL [4]) was “## (## is equal to or greater than 25% but less than 75%)”, the “FAAH % Inh 5 mg/kg (mouse)” value (FAAH [5]) was “# (# is <25%)” and the “ABHD6 % Inh 5 mg/kg (mouse)” value (ABHD6 [6]) was “# (# is <25%)”.

`O=C(OC(C(F)(F)F)C(F)(F)F)N1CCC2(CCCN2Cc2cc(Oc3cccnc3)cc(C(F)(F)F)c2)CC1` [Example 174, 1,1,1,3,3,3-Hexafluoropropan-2-yl 1-(3-(pyridin-3-yloxy)-5-(trifluoromethyl)benzyl)-1,8-diazaspiro[4.5]decane-8-carboxylate] was tested, and the inhibition at 1 µM (MAGL [1]) was greater than 75%, the IC50 (MAGL [1]) was less than 0.1 µM and the inhibition at 1 µM (ABHD6 [2]) was 25 to 75%. The IC50 (ABHD6 [2]) was greater than 1 µM, the inhibition at 1 µM (FAAH [3]) was less than 25% and the IC50 (FAAH [3]) was greater than 1 µM. The “MAGL % Inh 5 mg/kg (mouse)” value (MAGL [4]) was “## (## is equal to or greater than 25% but less than 75%)”, the “FAAH % Inh 5 mg/kg (mouse)” value (FAAH [5]) was “# (# is <25%)” and the “ABHD6 % Inh 5 mg/kg (mouse)” value (ABHD6 [6]) was “# (# is <25%)”.

With `O=C(OC(C(F)(F)F)C(F)(F)F)N1CCC2(CCCN2Cc2cc(OC3CCS(=O)(=O)CC3)cc(C(F)(F)F)c2)CC1` [Example 176, 1,1,1,3,3,3-Hexafluoropropan-2-yl 1-(3-((1,1-dioxidotetrahydro-2H-thiopyran-4-yl)oxy)-5-(trifluoromethyl)benzyl)-1,8-diazaspiro[4.5]decane-8-carboxylate] the inhibition at 1 µM (MAGL [1]) was greater than 75%, the IC50 (MAGL [1]) was less than 0.1 µM and the inhibition at 1 µM (ABHD6 [2]) was less than 25%. The IC50 (ABHD6 [2]) was greater than 1 µM, the inhibition at 1 µM (FAAH [3]) was less than 25% and the IC50 (FAAH [3]) was greater than 1 µM. For the same compound, the “MAGL % Inh 5 mg/kg (mouse)” value (MAGL [4]) was “## (## is equal to or greater than 25% but less than 75%)”, the “FAAH % Inh 5 mg/kg (mouse)” value (FAAH [5]) was “# (# is <25%)” and the “ABHD6 % Inh 5 mg/kg (mouse)” value (ABHD6 [6]) was “# (# is <25%)”.

`Cc1cc(CN2CCCC23CCN(C(=O)OC(C(F)(F)F)C(F)(F)F)CC3)ccc1C(F)(F)F` [Example 177, 1,1,1,3,3,3-Hexafluoropropan-2-yl 1-(3-methyl-4-(trifluoromethyl)benzyl)-1,8-diazaspiro[4.5]decane-8-carboxylate] gave an inhibition at 1 µM (MAGL [1]) greater than 75%, an IC50 (MAGL [1]) of 0.1 to 1 µM and an inhibition at 1 µM (ABHD6 [2]) of 25 to 75%. The IC50 (ABHD6 [2]) was greater than 1 µM, the inhibition at 1 µM (FAAH [3]) was less than 25% and the IC50 (FAAH [3]) was greater than 1 µM. For the same compound, the “MAGL % Inh 5 mg/kg (mouse)” value (MAGL [4]) was “### (### is ≥75%)”, the “FAAH % Inh 5 mg/kg (mouse)” value (FAAH [5]) was “# (# is <25%)” and the “ABHD6 % Inh 5 mg/kg (mouse)” value (ABHD6 [6]) was “# (# is <25%)”.

In the case of `Cc1ccc(CN2CCCC23CCN(C(=O)OC(C(F)(F)F)C(F)(F)F)CC3)cc1C(F)(F)F` [Example 180, 1,1,1,3,3,3-Hexafluoropropan-2-yl 1-(4-methyl-3-(trifluoromethyl)benzyl)-1,8-diazaspiro[4.5]decane-8-carboxylate], the inhibition at 1 µM (MAGL [1]) is reported as greater than 75%, the IC50 (MAGL [1]) is reported as less than 0.1 µM and the inhibition at 1 µM (ABHD6 [2]) is reported as less than 25%. The IC50 (ABHD6 [2]) was greater than 1 µM, the inhibition at 1 µM (FAAH [3]) was less than 25% and the IC50 (FAAH [3]) was greater than 1 µM. The “MAGL % Inh 5 mg/kg (mouse)” value (MAGL [4]) was “### (### is ≥75%)”, the “FAAH % Inh 5 mg/kg (mouse)” value (FAAH [5]) was “## (## is equal to or greater than 25% but less than 75%)” and the “ABHD6 % Inh 5 mg/kg (mouse)” value (ABHD6 [6]) was “## (## is equal to or greater than 25% but less than 75%)”.

`O=C(OC(C(F)(F)F)C(F)(F)F)N1CCC2(CCCN2Cc2ccc(C(F)(F)F)c(Cl)c2)CC1` [Example 183, 1,1,1,3,3,3-Hexafluoropropan-2-yl 1-(3-chloro-4-(trifluoromethyl)benzyl)-1,8-diazaspiro[4.5]decane-8-carboxylate] showed an inhibition at 1 µM (MAGL [1]) greater than 75%, an IC50 (MAGL [1]) of less than 0.1 µM and an inhibition at 1 µM (ABHD6 [2]) of 25 to 75%. For the same compound, the IC50 (ABHD6 [2]) was greater than 1 µM, the inhibition at 1 µM (FAAH [3]) was less than 25% and the IC50 (FAAH [3]) was greater than 1 µM. The “MAGL % Inh 5 mg/kg (mouse)” value (MAGL [4]) was “### (### is ≥75%)”, the “FAAH % Inh 5 mg/kg (mouse)” value (FAAH [5]) was “# (# is <25%)” and the “ABHD6 % Inh 5 mg/kg (mouse)” value (ABHD6 [6]) was “# (# is <25%)”.

In the case of `O=C(OC(C(F)(F)F)C(F)(F)F)N1CCC2(CCCN2Cc2ccc(Cl)c(C(F)(F)F)c2)CC1` [Example 184, 1,1,1,3,3,3-Hexafluoropropan-2-yl 1-(4-chloro-3-(trifluoromethyl)benzyl)-1,8-diazaspiro[4.5]decane-8-carboxylate], the inhibition at 1 µM (MAGL [1]) is reported as greater than 75%, the IC50 (MAGL [1]) is reported as less than 0.1 µM and the inhibition at 1 µM (ABHD6 [2]) is reported as less than 25%. The IC50 (ABHD6 [2]) was greater than 1 µM, the inhibition at 1 µM (FAAH [3]) was less than 25% and the IC50 (FAAH [3]) was greater than 1 µM. The “MAGL % Inh 5 mg/kg (mouse)” value (MAGL [4]) was “### (### is ≥75%)”, the “FAAH % Inh 5 mg/kg (mouse)” value (FAAH [5]) was “# (# is <25%)” and the “ABHD6 % Inh 5 mg/kg (mouse)” value (ABHD6 [6]) was “# (# is <25%)”.

For `CN1CCN(c2c(Cl)cccc2CN2CC3(CCN(C(=O)OC(C(F)(F)F)C(F)(F)F)CC3)CC2(C)C)CC1` [Example 189, 1,1,1,3,3,3-Hexafluoropropan-2-yl 2-(3-chloro-2-(4-methylpiperazin-1-yl)benzyl)-3,3-dimethyl-2,8-diazaspiro[4.5]decane-8-carboxylate], the inhibition at 1 µM (MAGL [1]) was greater than 75%, the IC50 (MAGL [1]) was less than 0.1 µM and the inhibition at 1 µM (ABHD6 [2]) was 25 to 75%. It also gave an IC50 (ABHD6 [2]) of 0.1 to 1 µM, an inhibition at 1 µM (FAAH [3]) of less than 25% and an IC50 (FAAH [3]) greater than 1 µM. For the same compound, the “MAGL % Inh 5 mg/kg (mouse)” value (MAGL [4]) was “## (## is equal to or greater than 25% but less than 75%)”, the “FAAH % Inh 5 mg/kg (mouse)” value (FAAH [5]) was “# (# is <25%)” and the “ABHD6 % Inh 5 mg/kg (mouse)” value (ABHD6 [6]) was “# (# is <25%)”.
